The structures appear in SMILES notation.

The results in this text go back to patent publication US7238701B2, “Substituted tetrahydrobenzothienopyrimidinamine compounds useful for treating hyper-proliferative disorders” (Bayer Pharmaceuticals Corporation, priority 2003, dated 2007).

Assay [1] has as its system BT474 (human breast carcinoma). The assay is described as follows: In vitro tumor cell proliferation assay (Cell Titer-Glo luminescent cell viability), BT474 cells. In kind it is cell-based. The conditions noted are these: BT-474, 72 hours drug exposure, 10% Fetal Bovine Serum, ATP luminescence readout, read-out: IC50 (50% inhibition of cell proliferation). From the text: (§1) In vitro Tumor Cell Proliferation Assay
(§2) The tumor cell proliferation assay used to test the compounds of the present invention involves a readout called Cell Titer-Glow® Luminescent Cell Viability Assay developed by Promega (Cunningham, B A “A Growing Issue: Cell Proliferation Assays, Modern kits ease quantification of cell growth” The Scientist 2001, 15(13), 26, and Crouch, S P et al., “The use of ATP bioluminescence as a measure of cell proliferation and cytotoxicity” Journal of Immunological Methods 1993, 160, 81–88), that measures inhibition of cell proliferation. Generation of a luminescent signal corresponds to the amount of ATP present, which is directly proportional to the number of metabolically active (proliferating) cells.
(§3) A431cells (human epidermoid carcinoma, ATCC # HTB-20) and BT474 (human breast carcinoma, ATCC # CRL-1555) were plated at a density of 2.5×10^3 cells/well in 96 well black-clear bottom tissue culture plates in RPMI media with 10% Fetal Bovine Serum and incubated at 37° C. Twenty-four hours later, test compounds are added at a final concentration range from as high 100 μM to as low 64 pM depend on the activities of the tested compounds in serial dilutions at a final DMSO concentration of 0.1%. Cells were incubated for 72 hours at 37° C. in complete growth media after addition of the test compound. After 72 hours of drug exposure, the plates were equilibrated to room temperature for approximately 30 min. Then, using a Promega Cell Titer Glo Luminescent® assay kit, lysis buffer containing 100 microliters of the enzyme luciferase and its substrate, luciferin mixture, was added to each well. The plates were mixed for 2 min on orbital shaker to ensure cell lysis and incubated for 10 min at room temperature to stabilize luminescence signal. The samples were read on VICTOR 2 using Luminescence protocol, and analyzed with Analyze5 software to generate IC50 values.

Assay [2] relates to A431cells (human epidermoid carcinoma). In words: In vitro tumor cell proliferation assay (Cell Titer-Glo luminescent cell viability), A431 cells. The class given is cell-based. The conditions noted are these: A-431, 72 h, 72 hours drug exposure, 10% Fetal Bovine Serum, ATP luminescence readout, read-out: IC50 (50% inhibition of cell proliferation).
Source text: as §1, §2, §3
A general note: Cellular ATP, detected with luciferase, serves as a proxy for viable cell number.

On to `COCCNCCC1CCc2c(sc3ncnc(Nc4ccc(OCc5cccc(F)c5)c(Cl)c4)c23)C1` (stereo not shown) [Example 142, N-{3-chloro-4-[(3-fluorobenzyl)oxy]phenyl}-7-{2-[(2-methoxyethyl)amino]ethyl}-5,6,7,8-tetrahydro[1]benzothieno[2,3-d]pyrimidin-4-amine], for which the IC50 in assay [1] and in assay [2] was less than 5 µM each time.

As for `OCCC1CCc2c(sc3ncnc(Nc4ccc5c(cnn5Cc5ccccc5)c4)c23)C1` (stereo not shown) [Example 203, 2-[4-(1-Benzyl-1H-indazol-5-ylamino)-5,6,7,8-tetrahydro-benzo[4,5]thieno[2,3-d]pyrimidin-7-yl]-ethanol], the IC50 in assay [1] and in assay [2] was less than 5 µM throughout.

`CN(C)[C@H]1CCN(CCC2CCc3c(sc4ncnc(Nc5ccc(OCc6ccccn6)c(Cl)c5)c34)C2)C1` (stereo partly drawn) [Example 141, N-[3-chloro-4-(pyridin-2-ylmethoxy)phenyl]-7-{2-[(3S)-3-(dimethylamino)pyrrolidin-1-yl]ethyl}-5,6,7,8-tetrahydro[1]benzothieno[2,3-d]pyrimidin-4-amine]: the IC50 in assay [1] and in assay [2] was less than 5 µM each time.

Turning to `Clc1cc(Nc2ncnc3sc4c(c23)CCC(CCN2CCN(Cc3ccncc3)CC2)C4)ccc1OCc1ccccn1` (stereo not shown) [Example 196, N-[3-chloro-4-(pyridin-2-ylmethoxy)phenyl]-7-{2-[4-(pyridin-4-ylmethyl)piperazin-1-yl]ethyl}-5,6,7,8-tetrahydro[1]benzothieno[2,3-d]pyrimidin-4-amine], the IC50 in assay [1] and in assay [2] was less than 5 µM each time.

On to `CN(C)[C@@H]1CCN(CC2CCc3c(sc4ncnc(Nc5cccc(Br)c5)c34)C2)C1` (stereo partly drawn) [Example 66, N-(3-bromophenyl)-7-{[(3R)-3-(dimethylamino)-1-pyrrolidinyl]methyl}-5,6,7,8-tetrahydro[1]benzothieno[2,3-d]pyrimidin-4-amine], for which the IC50 in assay [1] and in assay [2] was less than 5 µM each time.

Consider `Fc1cccc(COc2ccc(Nc3ncnc4sc5c(c34)CCC(CCn3ccnc3)C5)cc2Cl)c1` (stereo not shown) [Example 170, N-{3-chloro-4-[(3-fluorobenzyl)oxy]phenyl}-7-[2-(1H-imidazol-1-yl)ethyl]-5,6,7,8-tetrahydro[1]benzothieno[2,3-d]pyrimidin-4-amine], for which the IC50 in assay [1] and in assay [2] was less than 5 µM each time.

As to `Fc1ccc(Nc2ncnc3sc4c(c23)CCC(CCN2CCOCC2)C4)cc1Cl` (stereo not shown) [Example 54, N-(3-chloro-4-fluorophenyl)-7-[2-(4-morpholinyl)ethyl]-5,6,7,8-tetrahydro[1]benzothieno[2,3-d]pyrimidin-4-amine], the IC50 in assay [1] and in assay [2] was less than 5 µM each time.

Turning to `CC1CCCN1CCC1CCc2c(sc3ncnc(Nc4ccc5c(cnn5Cc5ccccc5)c4)c23)C1` (stereo not shown) [Example 238, N-(1-benzyl-1H-indazol-5-yl)-7-[2-(2-methylpyrrolidin-1-yl)ethyl]-5,6,7,8-tetrahydro[1]benzothieno[2,3-d]pyrimidin-4-amine], the results for the IC50 in assay [1] and in assay [2] were less than 5 µM and less than 50 µM, respectively.

For the compound `N#Cc1ccc(N2CCN(C(=O)C3CCc4c(sc5ncnc(Nc6cccc(Br)c6)c45)C3)CC2)cc1` (stereo not shown) [Example 48, 4-[4-({4-[(3-bromophenyl)amino]-5,6,7,8-tetrahydro[1]benzothieno[2,3-d]pyrimidin-7-yl}carbonyl)-1-piperazinyl]benzonitrile], the results for the IC50 in assay [1] and in assay [2] were less than 5 µM and less than 50 µM, respectively.

As for `CS(=O)(=O)CCNCCC1CCc2c(sc3ncnc(Nc4cccc(Br)c4)c23)C1` (stereo not shown) [Example 84, N-(3-bromophenyl)-7-(2-{[2-(methylsulfonyl)ethyl]amino}ethyl)-5,6,7,8-tetrahydro[1]benzothieno[2,3-d]pyrimidin-4-amine], the IC50 in assay [1] and in assay [2] was less than 5 µM each time.

For `COCCNC(=O)CC1CCc2c(sc3ncnc(Nc4cccc(Br)c4)c23)C1` (stereo not shown) [Example 82, 2-{4-[(3-bromophenyl)amino]-5,6,7,8-tetrahydro[1]benzothieno[2,3-d]pyrimidin-7-yl}-N-(2-methoxyethyl)acetamide], the IC50 in assay [1] and in assay [2] was less than 5 µM throughout.

Turning to `OCCNCCC1CCc2c(sc3ncnc(Nc4ccc(OCc5ccccn5)c(Cl)c4)c23)C1` (stereo not shown) [Example 180, 2-{[2-(4-{[3-chloro-4-(pyridin-2-ylmethoxy)phenyl]amino}-5,6,7,8-tetrahydro[1]benzothieno[2,3-d]pyrimidin-7-yl)ethyl]amino}ethanol], the IC50 was less than 5 µM in assay [1] and less than 50 µM in assay [2].

For the compound `COc1ccc(NCCC2CCc3c(sc4ncnc(Nc5cccc(Br)c5)c34)C2)cc1` (stereo not shown) [Example 89, N-(3-bromophenyl)-7-{2-[(4-methoxyphenyl)amino]ethyl}-5,6,7,8-tetrahydro[1]benzothieno[2,3-d]pyrimidin-4-amine], the IC50 in assay [1] and in assay [2] was less than 50 µM in each case.

On to `COCCN(C)CCC1CCc2c(sc3ncnc(Nc4ccc(OCc5ccccn5)c(Cl)c4)c23)C1` (stereo not shown) [Example 189, N-[3-chloro-4-(pyridin-2-ylmethoxy)phenyl]-7-{2-[(2-methoxyethyl)(methyl)amino]ethyl}-5,6,7,8-tetrahydro[1]benzothieno[2,3-d]pyrimidin-4-amine], for which the IC50 in assay [1] and in assay [2] was less than 5 µM in each case.

Regarding `Cc1ccc(Oc2ccc(Nc3ncnc4sc5c(c34)CCC(CCN3CCCC3C)C5)cc2C)cn1` (stereo not shown) [Example 234, N-{3-methyl-4-[(6-methylpyridin-3-yl)oxy]phenyl}-7-[2-(2-methylpyrrolidin-1-yl)ethyl]-5,6,7,8-tetrahydro[1]benzothieno[2,3-d]pyrimidin-4-amine], the IC50 is less than 5 µM in assay [1] and less than 50 µM in assay [2].

With `c1ccc(Cn2ncc3cc(Nc4ncnc5sc6c(c45)CCC(CCN4CCCC4)C6)ccc32)cc1` (stereo not shown) [Example 208, N-(1-benzyl-1H-indazol-5-yl)-7-(2-pyrrolidin-1-ylethyl)-5,6,7,8-tetrahydro[1]benzothieno[2,3-d]pyrimidin-4-amine], the IC50 in assay [1] and in assay [2] was less than 5 µM throughout.

Take `Clc1cc(Nc2ncnc3sc4c(c23)CCC(CCN2CCCC2)C4)ccc1OCc1ccccn1` (stereo not shown) [Example 190, N-[3-chloro-4-(pyridin-2-ylmethoxy)phenyl]-7-(2-pyrrolidin-1-ylethyl)-5,6,7,8-tetrahydro[1]benzothieno[2,3-d]pyrimidin-4-amine]: the IC50 in assay [1] and in assay [2] was less than 5 µM in each case.

For the compound `Clc1cc(Nc2ncnc3sc4c(c23)CCC(CCNCCN2CCOCC2)C4)ccc1OCc1ccccn1` (stereo not shown) [Example 192, N-[3-chloro-4-(pyridin-2-ylmethoxy)phenyl]-7-{2-[(2-morpholin-4-ylethyl)amino]ethyl}-5,6,7,8-tetrahydro[1]benzothieno[2,3-d]pyrimidin-4-amine], the IC50 in assay [1] and in assay [2] was less than 5 µM each time.

For the compound `Fc1cccc(COc2ccc(Nc3ncnc4sc5c(c34)CCC(CCN3CCN(Cc4ccncc4)CC3)C5)cc2Cl)c1` (stereo not shown) [Example 171, N-{3-chloro-4-[(3-fluorobenzyl)oxy]phenyl}-7-{2-[4-(pyridin-4-ylmethyl)piperazin-1-yl]ethyl}-5,6,7,8-tetrahydro[1]benzothieno[2,3-d]pyrimidin-4-amine], the IC50 in assay [1] and in assay [2] was less than 5 µM throughout.

Turning to `CN1CCN(CCC2CCc3c(sc4ncnc(Nc5ccc(OCc6ccc(F)cc6)c(Cl)c5)c34)C2)CC1` (stereo not shown) [Example 154, N-{3-chloro-4-[(4-fluorobenzyl)oxy]phenyl}-7-[2-(4-methylpiperazin-1-yl)ethyl]-5,6,7,8-tetrahydro[1]benzothieno[2,3-d]pyrimidin-4-amine], the IC50 in assay [1] and in assay [2] was less than 5 µM throughout.

As for `Fc1ccc(COc2ccc(Nc3ncnc4sc5c(c34)CCC(CCN3CCCC3)C5)cc2Cl)cc1` (stereo not shown) [Example 153, N-{3-chloro-4-[(4-fluorobenzyl)oxy]phenyl}-7-(2-pyrrolidin-1-ylethyl)-5,6,7,8-tetrahydro[1]benzothieno[2,3-d]pyrimidin-4-amine], the IC50 in assay [1] and in assay [2] was less than 5 µM each time.

As for `Cc1ccc(Oc2ccc(Nc3ncnc4sc5c(c34)CCC(CCNCCN(C)C)C5)cc2C)cn1` (stereo not shown) [Example 230, N,N-dimethyl-N′-{2-[4-({3-methyl-4-[(6-methylpyridin-3-yl)oxy]phenyl}amino)-5,6,7,8-tetrahydro[1]benzothieno[2,3-d]pyrimidin-7-yl]ethyl}ethane-1,2-diamine], the IC50 in assay [1] and in assay [2] was less than 5 µM in each case.

As to `CCNCCC1CCc2c(sc3ncnc(Nc4ccc(OCc5ccccn5)c(Cl)c4)c23)C1` (stereo not shown) [Example 193, N-[3-chloro-4-(pyridin-2-ylmethoxy)phenyl]-7-[2-(ethylamino)ethyl]-5,6,7,8-tetrahydro[1]benzothieno[2,3-d]pyrimidin-4-amine], the IC50 in assay [1] and in assay [2] was less than 5 µM in each case.
